Assay results taken from publication PMC8766756, “Insights on Cancer Cell Inhibition, Subcellular Activities, and Kinase Profile of Phenylacetamides Pending 1H-Imidazol-5-One Variants” (Frontiers in Pharmacology, 2022).
Several values for one entry are separate records, joined by “and”; a condition that tells them apart may be missing. Equal values may be shown once.

What was measured:
CCK4/PTK7 (Q13308) = molecular target: T1, CCK4/PTK7 (Q13308) (Homo sapiens, UniProt Q13308); experiment: PamChip tyrosine kinase microarray; assay type: biochemical; conditions: 0.1 µM, HL60 lysate
T1 construct: purchased PamGene (PamChip PTK array, Upstream Kinase Analysis)
T1 sequence (Q13308 31-1070): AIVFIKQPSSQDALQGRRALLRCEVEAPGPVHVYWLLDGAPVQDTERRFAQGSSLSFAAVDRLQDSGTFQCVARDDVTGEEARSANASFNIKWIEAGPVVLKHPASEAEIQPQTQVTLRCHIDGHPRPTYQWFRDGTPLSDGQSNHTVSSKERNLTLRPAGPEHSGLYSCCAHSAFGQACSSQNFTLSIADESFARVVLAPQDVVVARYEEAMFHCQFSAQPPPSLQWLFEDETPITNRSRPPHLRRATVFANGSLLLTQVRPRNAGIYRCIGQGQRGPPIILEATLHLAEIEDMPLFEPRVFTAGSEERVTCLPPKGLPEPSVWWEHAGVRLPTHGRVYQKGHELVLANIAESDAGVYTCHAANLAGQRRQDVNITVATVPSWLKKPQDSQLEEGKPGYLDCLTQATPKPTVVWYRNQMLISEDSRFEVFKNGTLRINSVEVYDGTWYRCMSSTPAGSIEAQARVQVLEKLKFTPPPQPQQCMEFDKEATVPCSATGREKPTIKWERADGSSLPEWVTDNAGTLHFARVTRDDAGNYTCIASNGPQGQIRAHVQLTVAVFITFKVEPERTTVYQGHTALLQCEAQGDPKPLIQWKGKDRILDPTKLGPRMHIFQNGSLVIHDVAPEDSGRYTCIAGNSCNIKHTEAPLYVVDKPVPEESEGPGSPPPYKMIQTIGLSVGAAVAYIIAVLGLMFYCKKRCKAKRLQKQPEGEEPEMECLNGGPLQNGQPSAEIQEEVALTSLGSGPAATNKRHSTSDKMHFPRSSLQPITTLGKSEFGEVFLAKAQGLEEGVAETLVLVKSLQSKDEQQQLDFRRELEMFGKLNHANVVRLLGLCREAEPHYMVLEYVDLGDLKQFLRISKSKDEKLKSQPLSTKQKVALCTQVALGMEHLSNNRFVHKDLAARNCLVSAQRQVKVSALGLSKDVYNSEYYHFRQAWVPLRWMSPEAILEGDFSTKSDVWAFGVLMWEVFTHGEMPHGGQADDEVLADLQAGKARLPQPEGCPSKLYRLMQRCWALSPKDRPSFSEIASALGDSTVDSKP
Method in brief: (§1)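 HL60 (AML) cell lysate was spiked with compound at 0.001, 0.01, 0.1, 1, 10 and 50 µM, or 2% v/v DMSO as control, then profiled in technical replicates on a tyrosine kinase peptide array of 196 phosphosites. Kinase activity was inferred from peptide-set changes using an upstream kinase tool.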

HER2 (P04626) = molecular target: T2, HER2 (P04626) (Homo sapiens, UniProt P04626); experiment: PamChip tyrosine kinase microarray; assay type: biochemical; conditions: 0.1 µM, HL60 lysate
T2 construct: purchased PamGene (PamChip PTK array, Upstream Kinase Analysis)
Method in brief: as §1

T2 sequence (P04626 23-1255): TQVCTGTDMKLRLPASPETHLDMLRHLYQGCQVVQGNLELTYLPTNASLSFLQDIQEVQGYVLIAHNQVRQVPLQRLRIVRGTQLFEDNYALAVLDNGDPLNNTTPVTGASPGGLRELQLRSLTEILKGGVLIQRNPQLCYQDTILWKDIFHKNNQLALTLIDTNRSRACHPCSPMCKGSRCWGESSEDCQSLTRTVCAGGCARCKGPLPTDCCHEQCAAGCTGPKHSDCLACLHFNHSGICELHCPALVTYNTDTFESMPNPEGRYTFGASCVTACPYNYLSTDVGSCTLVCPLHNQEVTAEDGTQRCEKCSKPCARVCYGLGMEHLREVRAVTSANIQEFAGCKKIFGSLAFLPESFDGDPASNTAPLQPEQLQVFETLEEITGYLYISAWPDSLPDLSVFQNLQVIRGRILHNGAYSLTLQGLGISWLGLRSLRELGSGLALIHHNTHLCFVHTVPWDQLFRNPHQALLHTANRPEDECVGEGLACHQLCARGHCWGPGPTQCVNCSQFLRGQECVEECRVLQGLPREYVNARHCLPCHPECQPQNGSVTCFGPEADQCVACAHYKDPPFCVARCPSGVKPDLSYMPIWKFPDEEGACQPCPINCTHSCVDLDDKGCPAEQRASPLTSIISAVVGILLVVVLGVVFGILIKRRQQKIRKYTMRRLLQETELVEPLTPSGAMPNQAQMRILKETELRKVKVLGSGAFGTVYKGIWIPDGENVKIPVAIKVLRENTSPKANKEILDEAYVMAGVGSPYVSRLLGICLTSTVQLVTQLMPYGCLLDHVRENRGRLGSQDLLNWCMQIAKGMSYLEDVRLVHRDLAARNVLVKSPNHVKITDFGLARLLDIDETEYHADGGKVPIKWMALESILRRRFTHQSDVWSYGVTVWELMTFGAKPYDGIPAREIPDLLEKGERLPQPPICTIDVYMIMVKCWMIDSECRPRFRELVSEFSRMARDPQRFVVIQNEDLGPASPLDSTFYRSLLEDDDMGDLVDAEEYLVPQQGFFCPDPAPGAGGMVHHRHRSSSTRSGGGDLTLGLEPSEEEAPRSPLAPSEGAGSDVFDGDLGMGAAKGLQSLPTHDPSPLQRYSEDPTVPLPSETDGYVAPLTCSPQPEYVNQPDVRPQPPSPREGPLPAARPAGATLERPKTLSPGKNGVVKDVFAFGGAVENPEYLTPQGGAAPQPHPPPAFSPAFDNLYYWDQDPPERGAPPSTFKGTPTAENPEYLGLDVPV

COc1ccc(/C=C2\N=C(C)N(c3ccc(CC(=O)NCc4ccccc4)cc3)C2=O)cc1 [Compound 4c, (Z)-N-Benzyl-2-(4-(4-(4-methoxybenzylidene)-2-methyl-5-oxo-4,5-dihydro-1H-imidazol-1-yl)phenyl)acetamide]
Mean Significance Score (CCK4/PTK7 (Q13308)): 1.989 | Mean Specificity Score (CCK4/PTK7 (Q13308)): 0.5841 | Mean Final score (Kinase score) (CCK4/PTK7 (Q13308); listed as KIM-161): 2.60 and 2.5986 | Mean Final score (Kinase score) (HER2 (P04626)): 2.103 | Mean Kinase Statistic (HER2 (P04626)): -1.031 | Mean Significance Score (HER2 (P04626)): 1.88 | Mean Specificity Score (HER2 (P04626)): 0.08906
